According to PubChem BioAssay AID1249 (Columbia University Molecular Screening Center, 2008):
Active and inactive are the calls of the source. The rule behind the calls is not given here.

Test: modifiers of cytoskeleton assembly, confirmation, imaging, high-content imaging, retest and dose response (AID 1249);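 note: compound exposure lasted 24 h before fixation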;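 for inhibition: plate controls were untreated cells for no effect and reference compound treated cells for full effect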
Settings: cell-based imaging, cytoskeleton assembly phenotype, high content; for inhibition: at 2 µM, stronger effect = higher value

Row | SMILES | inhibition | cell count (cell count, at 10 µM, stronger effect = lower value)
1 | CCc1cccc(CC)c1NC(=O)C1SC(=Nc2ccccc2C)C(c2nc3ccccc3s2)=C1N (configuration not stated) | 5% (inactive) | –
2 | COc1ccc(C(=O)C(CN2CCCC2)c2ccccc2)cc1 (configuration not stated) | 8.8% (inactive) | –
3 | NC1=CC(=O)c2cccc3cccc1c23 | -0.4% (inactive) | –
4 | Cc1noc(C)c1S(=O)(=O)N1CCC2(CC1)OCCO2 | -7.2% (inactive) | –
5 | CCOc1cc(C(=O)OCC(=O)c2c(C)[nH]c3ccccc23)ccc1OCC(=O)N1CCOCC1 | -10.4% (inactive) | –
6 | COc1ccc(CS(=O)(=O)/C(Cl)=C(/Cl)C(=O)Nc2ccc(OC)nc2)cc1 | -6.2% (inactive) | –
7 | Cc1c(C(=O)N2CCN(c3ccccc3F)CC2)sc2ncn(CC(=O)N3CCOCC3)c(=O)c12 | -3.2% (inactive) | –
8 | O=c1c2ccccc2nc(/C=C/c2ccc([N+](=O)[O-])o2)n1CCCO | -3.1% (inactive) | –
9 | Nc1nnc(SCC(=O)NCc2ccc3c(c2)OCO3)s1 | 3.6% (inactive) | –
10 | COc1ccc(Cl)c(NC(=O)Nc2c(C)n(-c3ccccc3)c(=O)n2C)c1 | 0.8% (inactive) | –
11 | O=C(CN1CCCCCC1=O)OCc1ncc(-c2ccccc2)o1 | -11.1% (inactive) | –
12 | CCn1c(CN2CCN(c3ccc(Cl)cc3)CC2)nc2ccccc21 | -1% (inactive) | –
13 | Clc1ccc2nc(CSc3nc4ccccc4o3)cn2c1 | 14.4% (inactive) | –
14 | CC(=O)c1c(C(C)=O)c(C)n(NC(=O)c2ccccc2O)c1C | -15.8% (inactive) | –
15 | CC(=O)c1c(C)oc2ccc(N(C(C)=O)S(=O)(=O)c3ccc(Cl)c([N+](=O)[O-])c3)cc12 | -11.2% (inactive) | –
16 | CC(/C=C/c1ccco1)=N\NC(=O)c1cc(C)[nH]n1 | -14.4% (inactive) | –
17 | CCOC(=O)C1=C(c2ccccc2)O/C(=C(/C#N)C(F)(F)F)S1 | 2.3% (inactive) | –
18 | CCn1c(=O)c2c(n3cnnc13)-c1ccccc1CC21CCCCC1 | 5.6% (inactive) | –
19 | N#Cc1nc(-c2ccco2)oc1N1CCOCC1 | 3.4% (inactive) | –
20 | Cc1c(Cl)cccc1-n1ccnc1SCC(=O)O | 2.2% (inactive) | –
21 | Cc1ccc(F)cc1NC(=O)c1ccc2c(c1)OCO2 | -1.6% (inactive) | –
22 | COc1cc(CC(=O)Nc2ncc(C)s2)cc(OC)c1OC | -7.4% (inactive) | –
23 | COc1ccc(CN2C(=O)[C@@H]3C(c4ccc(F)cc4)=NO[C@@H]3C2=O)cc1 | 6.5% (inactive) | –
24 | CCOc1ccc(C2=Nn3c(nnc3-c3ccccc3OC)SC2)cc1 | – | 36.3%

Row | SMILES | inhibition | cell count (cell count, at 10 µM, stronger effect = lower value)
25 | C=CCn1c(N)c(C(=O)OCC(C)C)c2nc3ccccc3nc21 | -0.2% (inactive) | –
26 | OC(c1ccccn1)c1c[nH]c2ccccc12 (configuration not stated) | 14.9% (inactive) | –
27 | COc1ccc(S(=O)(=O)Nc2nc3n(n2)C(c2ccc(Cl)cc2)CC(=O)N3)cc1 (configuration not stated) | 4.9% (inactive) | –
28 | O=C(NCc1ccncc1)c1ccc(Br)cc1 | 0.2% (inactive) | –
29 | CCCNS(=O)(=O)c1ccc2c(c1)CCCN2C(C)=O | -1.4% (inactive) | –
30 | CC(Sc1nc(N)cc(=O)[nH]1)C(=O)NC1CCCCC1 (configuration not stated) | 9% (inactive) | –
31 | Cc1ccc(OCC(=O)N2CCN(C(=O)Cc3ccccc3)CC2)cc1 | -4.3% (inactive) | –
32 | O=C(N/N=C/C=C/c1ccccc1)c1n[nH]c2c1CCC2 | 2% (inactive) | –
33 | COc1ccc(Oc2cc(NC(=O)c3nn(C)cc3[N+](=O)[O-])cc([N+](=O)[O-])c2)cc1 | 11.6% (inactive) | –
34 | O=[N+]([O-])/C=C/c1c(OCc2ccccc2)ccc2ccccc12 | -14.2% (inactive) | –
35 | CCn1c(SCC(=O)N2CCN(c3cccc(Cl)c3)CC2)nc2ccccc2c1=O | -3.6% (inactive) | –
36 | O=C(NCc1ccco1)C1CC(=O)N(c2ccc(F)cc2)C1 (configuration not stated) | 2.5% (inactive) | –
37 | CN(CC(=O)NCc1ccncc1)S(=O)(=O)c1ccc(F)cc1 | 2.2% (inactive) | –
38 | O=c1c(-c2ccc(Br)cc2)coc2c(CN3CCOCC3)c(O)ccc12 | 3.1% (inactive) | –
39 | Cc1cc(N2CCOCC2)c2c(N)c(C)cc(C)c2n1 | -8.7% (inactive) | –
40 | O=C(Oc1ccc2ccc(=O)oc2c1)N1CCOCC1 | -7.8% (inactive) | –
41 | Cc1ccc(C(=O)c2cc([N+](=O)[O-])ccc2N2CCOCC2)c(C)c1 | 3.2% (inactive) | –
42 | CC1CC(=O)NN=C1c1ccc(NCCO)c([N+](=O)[O-])c1 (configuration not stated) | -4.6% (inactive) | –
43 | COc1ccc(-n2nnnc2S(=O)(=O)CC(=O)N2CCCCC2)cc1 | 0.7% (inactive) | –
44 | C=C1N2CCC(CC2)C1(O)c1ccccc1C (configuration not stated) | -0.8% (inactive) | –
45 | Cc1cccc(NC(=O)CSc2nc3ccc(NC(=O)CSc4nnnn4-c4ccccc4)cc3s2)c1C | 2.9% (inactive) | –
46 | Cc1ccc(S(=O)(=O)Nc2cc(C(=O)NCCN3CCCC3)ccc2N2CCCCC2)cc1 | -7.7% (inactive) | –
47 | C=CC(=O)Nc1ccc(Br)cc1 | -1.2% (inactive) | –
48 | CCn1ccnc1C(O)c1cccc(OC)c1 (configuration not stated) | 6.1% (inactive) | –

Row | SMILES | inhibition | cell count (cell count, at 10 µM, stronger effect = lower value)
49 | O=C(CCCCCN1C(=O)c2ccccc2C1=O)Nc1nccs1 | 8.8% (inactive) | –
50 | O=C(NC1CCCCC1)N(CCN1CCOCC1)Cc1cc2cc3c(cc2[nH]c1=O)OCCO3 | 32.9% (inactive) | –
51 | Cc1c(CCO)c(=O)n(-c2ccccc2)n1S(=O)(=O)c1ccc(Cl)cc1 | -11% (inactive) | –
52 | N=C1C(c2nc3ccccc3s2)=C(O)CN1Cc1ccco1 | 5.2% (inactive) | –
53 | C=CCOC(=O)C1=C(C)OC(N)=C(C#N)C12C(=O)N(CN1CCOCC1)c1ccccc12 (configuration not stated) | -12.8% (inactive) | –
54 | Cn1c(CNc2ccccc2O)nc2ccccc21 | 1.8% (inactive) | –
55 | COc1cc2c(cc1OC)/C(=C/C#N)NC(C)(C)C2 | 1.8% (inactive) | –
56 | Cc1nc2sc(C(c3ccc(Cl)cc3)N3CC(C)OC(C)C3)c(O)n2n1 (configuration not stated) | -4.4% (inactive) | –
57 | Cc1nc(SCc2ccc(Br)cc2)[nH]c(=O)c1C | -1.2% (inactive) | –
58 | CN(Cc1ccccc1)C(=O)c1ccccc1NC(=O)c1ccccc1 | 5.1% (inactive) | –
59 | O=C(Cn1ncc2c(=O)oc3ccccc3c21)NCCC1=CCCCC1 | -3.1% (inactive) | –
60 | COc1ccc(S(=O)(=O)Nc2cc3c(C(C)=O)c(C)oc3c3ccccc23)cc1 | -5.1% (inactive) | –
61 | CCN(Cc1cc2cc(C)ccc2[nH]c1=O)C(=O)c1cccc(OC)c1 | 2.3% (inactive) | –
62 | Cn1c(SCC(=O)NC2CCCCC2)nnc1-c1cccc(N)c1 | -8.2% (inactive) | –
63 | C=CCN1C(=O)/C(=C2/Sc3ccccc3N2CCCS(=O)(=O)O)SC1=S | 0.3% (inactive) | –
64 | CCOc1ccc(-n2cc(C(=O)NCc3ccco3)c3cc(OC)c(OC)cc3c2=O)cc1 | -5.9% (inactive) | –
65 | C=C(C)c1cccc(C(C)(C)NC(=O)Nc2ncccn2)c1 | 1.8% (inactive) | –
66 | CCn1c(SCC(=O)Nc2ccc(C(=O)OC)cc2)nnc1-c1cccs1 | 0.4% (inactive) | –
67 | COc1cc(/C=N/Nc2snc(SC)c2C#N)ccc1O | -6.6% (inactive) | –
68 | CC(=O)Nc1nc2n(n1)C(c1ccc(F)cc1)C=C(c1ccccc1)N2 (configuration not stated) | 13.3% (inactive) | –
69 | CCc1ccc(C(=O)/C=C/c2ccc([N+](=O)[O-])o2)cc1 | -3.9% (inactive) | –
70 | COC(=O)CCC(=O)Nc1cccc(Br)c1 | 4.9% (inactive) | –
71 | Cc1ccc(-c2nnc3ccc(SCC(=O)Nc4cc(C)on4)nn23)cc1 | -5.1% (inactive) | –
72 | Cc1nnc(SCc2cn3ccsc3n2)n(N)c1=O | -0.8% (inactive) | –
